This test addresses T1, OsGID1 with SLR1 (Oryza sativa, UniProt Q6L545).
T1 sequence (Q6L545 1-354): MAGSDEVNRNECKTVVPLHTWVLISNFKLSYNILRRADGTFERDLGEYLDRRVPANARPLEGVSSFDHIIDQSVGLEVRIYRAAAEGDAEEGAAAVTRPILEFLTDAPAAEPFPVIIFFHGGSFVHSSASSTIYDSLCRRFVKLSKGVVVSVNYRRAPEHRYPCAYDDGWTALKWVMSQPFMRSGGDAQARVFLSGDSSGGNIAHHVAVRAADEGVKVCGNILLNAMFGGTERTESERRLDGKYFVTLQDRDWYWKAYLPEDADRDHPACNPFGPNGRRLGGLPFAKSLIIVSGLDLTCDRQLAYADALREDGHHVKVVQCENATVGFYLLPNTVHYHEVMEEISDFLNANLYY
T1 sequence (Q7G7J6 1-625 partner): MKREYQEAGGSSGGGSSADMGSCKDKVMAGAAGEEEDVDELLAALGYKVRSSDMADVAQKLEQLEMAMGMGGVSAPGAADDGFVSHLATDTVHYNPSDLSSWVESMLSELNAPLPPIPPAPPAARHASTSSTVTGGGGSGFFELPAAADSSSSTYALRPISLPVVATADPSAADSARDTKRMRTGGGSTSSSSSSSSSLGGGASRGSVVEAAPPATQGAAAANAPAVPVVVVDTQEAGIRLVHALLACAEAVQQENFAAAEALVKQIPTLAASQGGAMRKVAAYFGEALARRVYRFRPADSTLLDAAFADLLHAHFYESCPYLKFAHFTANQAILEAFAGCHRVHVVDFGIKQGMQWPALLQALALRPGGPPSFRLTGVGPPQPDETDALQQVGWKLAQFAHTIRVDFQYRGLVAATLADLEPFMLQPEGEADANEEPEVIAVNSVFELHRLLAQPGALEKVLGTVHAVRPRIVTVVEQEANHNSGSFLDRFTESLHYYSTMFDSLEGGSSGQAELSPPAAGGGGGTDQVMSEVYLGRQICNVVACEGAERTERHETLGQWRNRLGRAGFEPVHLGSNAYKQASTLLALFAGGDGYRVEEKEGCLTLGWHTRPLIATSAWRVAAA
The experiment in a line: SPR. Format: binding.

Broadly, the Kd is the constant that tells how readily two partners part at equilibrium. Higher therefore signals weaker binding. As to `C=C1C[C@]23C[C@@]1(O)CC[C@H]2[C@@]12CC[C@H](O)[C@@](C)(C(=O)O1)[C@H]2[C@@H]3C(=O)O` [GA1], the Kd came out at 305 nM.

`C=C1C[C@]23C[C@@]1(O)CC[C@H]2[C@@]12C=C[C@H](O)[C@@](C)(C(=O)O1)[C@H]2[C@@H]3C(=O)O` [GA3] yielded a dissociation constant (Kd) of 296 nM.

These data come from paper PMC6099883 (Proceedings of the National Academy of Sciences of the …, 2018).
